Test results published in patent EP2377520A1, “Pharmaceutical compound of prasugrel” (Ratiopharm GmbH, priority 2010, dated 2011).
Values after ≈ are worked out from the molar mass of the structure shown.

Key:
pH-dependent degradation = format: physicochemical; details: pH-Werte < 3; nach bereits 2 Stunden; read-out: Abbau
Source text: Darüber hinaus weist Prasugrel auch einen stark pH-abhängigen Abbau auf. Bei pH-Werten von < 3 ist ein Abbau von mehr als 1 % nach bereits 2 Stunden zu beobachten. Dies schränkt die möglichen Hilfsstoffe bei der Herstellung pharmazeutischer Formulierungen ein.

Solubility in water = format: physicochemical; details: in Wasser, freie Base, read-out: Löslichkeit
Protocol: Prasugrel wird als Plättchenaggregationshemmer oral verabreicht. Problematisch hierbei ist, dass es sich bei Prasugrel um einen schwer löslichen Wirkstoff handelt. Die freie Base des Wirkstoffs weist eine Löslichkeit von 57 µg/ml in Wasser auf, aber auch die Salze zeigen nur eine begrenzte Löslichkeit.

**Q.** With `CC(=O)Oc1cc2c(s1)CCN(C(C(=O)C1CC1)c1ccccc1F)C2` (centres unmarked) [Prasugrel, 2-Acetoxy-5-(a-cyclopropylcarbonyl-2-fluorbenzyl)-4,5,6,7-tetrahydrothieno[3,2-c]pyridin] as the compound, how does the degraded at 2 h (pH-dependent degradation) read?
**A.** > 1%

**Q.** And the solubility (Solubility in water)?
**A.** 57 µg/mL (≈ 153 µM)
